Data on 5 molecules can be found in article PMC4357015, “Structure, Function and Inhibition of the Phosphoethanolamine Methyltransferases of the Human Malaria Parasites Plasmodium vivax and Plasmodium knowlesi” (Scientific Reports, 2015).

Data set [1] concerns the target T1, PvPMT (Plasmodium vivax, UniProt A5K867).
T1 sequence (A5K867 1-264): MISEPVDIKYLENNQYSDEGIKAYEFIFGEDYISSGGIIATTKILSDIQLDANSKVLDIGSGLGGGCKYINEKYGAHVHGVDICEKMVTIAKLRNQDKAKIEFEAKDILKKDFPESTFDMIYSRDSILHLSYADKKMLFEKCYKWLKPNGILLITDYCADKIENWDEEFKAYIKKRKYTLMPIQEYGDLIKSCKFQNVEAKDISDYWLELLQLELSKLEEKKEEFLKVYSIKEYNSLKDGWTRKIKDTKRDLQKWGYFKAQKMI
Description: radiometric PMT transmethylation assay, inhibition of PvPMT. The data set is classed as biochemical. How it is done:
(§1) Figure 3 Amodiaquine (AQ) and NSC158011 inhibit the activity of PvPMT and PkPMT. Enzyme inhibition assays with different concentrations of Amodiaquine (AQ), NSC158011 and Chloroquine (CQ) were carried out at constant P-Etn (2 mM) and SAM (1.5 mM) concentrations. The activity in the absence of any drug was taken as 100% and % enzyme activity was calculated in the presence of different drug concentrations (100, 500, 1000 μM). To determine the concentration that results in 50% inhibition of enzyme activity (IC50), the data were fitted to a non-linear regression analysis in the following equation Y = 100/(1 + ([X]/IC50)), where Y is % enzyme activity and X is drug concentration using Graph pad software.
(§2) For enzyme kinetics studies recombinant histidine-tagged proteins were expressed using 1 mM IPTG for 4 h, purified using Ni-affinity purification and dialyzed. As expected, purified proteins migrated in SDS-PAGE gels at approximately 31 kDa. The purified proteins were stored in HEPES-KOH buffer (pH 7.4) at 4°C and were assayed within a month of purification. During this time, the integrity of the protein was assessed by SDS-PAGE. The kinetic properties of enzymes were assessed using radiometric assay wherein incorporation of radioactive labeled methyl donor (100nCi [methyl-^14C] SAM, Perkin elmer NEC363010UC) or (200nCi [methyl-^3H] SAM, Perkin Elmer NET155H250UC) was measured. […]

The target of data set [2] is T2, PkPMT (Plasmodium knowlesi, UniProt A0A384KJX3).
T2 sequence (A0A384KJX3 1-264): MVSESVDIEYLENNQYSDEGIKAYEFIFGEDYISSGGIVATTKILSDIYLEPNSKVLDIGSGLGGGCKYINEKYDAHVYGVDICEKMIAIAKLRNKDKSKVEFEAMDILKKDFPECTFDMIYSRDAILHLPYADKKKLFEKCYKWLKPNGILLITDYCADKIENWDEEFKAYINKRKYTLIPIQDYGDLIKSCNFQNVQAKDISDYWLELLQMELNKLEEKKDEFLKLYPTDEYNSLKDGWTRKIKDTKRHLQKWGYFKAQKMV
Nature of the data set: radiometric PMT transmethylation assay, inhibition of PkPMT. It counts as biochemical. How it is done:
as §1, §2

Data set [3] concerns the target T2, PkPMT. Nature of the data set: kinetic parameters of PkPMT, radiometric assay. The data set is classed as biochemical. The following applies: varied substrate, other constant (SAM 1.5 mM or P-Etn 2.0 mM). How it is done: (§3) Figure 2 Analysis of kinetic parameters of P.vivax (top panel) and P. knowlesi PMT enzymes (bottom panel). The Km values for phosphoethanolamine (P-Etn) was determined under standard assay conditions with varying concentrations of P-Eth (0–800 μM) and at constant S-adenosylmethionine (SAM) concentration of 1.5 mM. The Km values for SAM were determined under standard assay conditions with varying concentrations of SAM (0–600 μM) and at constant P-Etn concentration of 2.0 mM. All data were fitted to the Michaelis-Menten equation, v = (kcat [Et][S])/(Km + [S]) using Graph pad software.
(§4) For enzyme kinetics studies recombinant histidine-tagged proteins were expressed using 1 mM IPTG for 4 h, purified using Ni-affinity purification and dialyzed. As expected, purified proteins migrated in SDS-PAGE gels at approximately 31 kDa. The purified proteins were stored in HEPES-KOH buffer (pH 7.4) at 4°C and were assayed within a month of purification. During this time, the integrity of the protein was assessed by SDS-PAGE. The kinetic properties of enzymes were assessed using radiometric assay wherein incorporation of radioactive labeled methyl donor (100nCi [methyl-^14C] SAM, Perkin elmer NEC363010UC) or (200nCi [methyl-^3H] SAM, Perkin Elmer NET155H250UC) was measured. The enzymatic assay conditions were carried out in 100 μl volume containing 0.1 M Hepes, KOH (pH8.6), 2 mM Na2EDTA and10% glycerol. For NSC158011 related studies, 10% DMSO was added to the reaction mixture. Purified enzyme (322 nM) was used in each reaction and the reactions were incubated at 37°C for 30 minutes, thereafter the reaction was terminated using 1 ml cold water. Afterwards, the product was purified by batch purification using AG (H+ resin) (Biorad # 142-1451) using the protocol provided by the manufacturer. The product was eluted from resin using 1.5 ml of 0.1 N HCl and total radioactivity was measured using the scintillation cocktail (Biosafe II).
(§5) To determine the Km value for P-Eth, enzymatic reactions were carried out with 0-0.8 mM of P-Eth at constant 1.5 mM SAM. Similarly Km value for SAM was carried with 0–0.6 mM SAM at constant 2 mM P-Ethanolamine (P-Etn). The inhibition of PvPMT and PkPMT by AQ, CQ and NSC158011were also examined using the same radiometric PMT transmethylation assay. Enzyme activity was evaluated at 0, 100, 500 and 1000 μM of the inhibitor at a fixed concentration of P-Eth (2 mM) and SAM (1.5 mM). To calculate IC50 the data was fitted to non-linear regression analysis in the following equation Y = 100/(1 + ([X]/IC50)), where Y is % enzyme activity and X is inhibitor concentration using Graph pad software.

Data set [4] concerns the target T1, PvPMT. Nature of the data set: kinetic parameters of PvPMT, radiometric assay. It counts as biochemical. The following applies: varied substrate, other constant (SAM 1.5 mM or P-Etn 2.0 mM). How it is done: as §3, §4, §5
Substrate in data set [5]: C[S+](CC[C@H](N)C(=O)[O-])C[C@H]1O[C@@H](n2cnc3c(N)ncnc32)[C@H](O)[C@@H]1O
Nature of the data set: kinetic parameters of PkPMT, radiometric assay. It counts as biochemical, Plasmodium knowlesi. The following applies: other: PkPMT; varied substrate, other constant (SAM 1.5 mM or P-Etn 2.0 mM); 37.0 °C. How it is done:
as §3, §4
(§6) To determine the Km value for P-Eth, enzymatic reactions were carried out with 0-0.8 mM of P-Eth at constant 1.5 mM SAM. […]

Substrate in data set [6]: C[S+](CC[C@H](N)C(=O)[O-])C[C@H]1O[C@@H](n2cnc3c(N)ncnc32)[C@H](O)[C@@H]1O
Nature of the data set: kinetic parameters of PvPMT, radiometric assay. The data set is classed as biochemical, Plasmodium vivax. The following applies: other: PvPMT; varied substrate, other constant (SAM 1.5 mM or P-Etn 2.0 mM); 37.0 °C. How it is done:
as §3, §4, §6

As for `CCN(CC)CCCC(C)Nc1ccnc2cc(Cl)ccc12` (stereo not shown) [CQ, chloroquine], the IC50 (usually the concentration at which inhibition is half-maximal) stood at 146 µM at PvPMT [1] and 987 µM at PkPMT [2].
`C[S+](CC[C@H](N)C(=O)[O-])C[C@H]1O[C@@H](n2cnc3c(N)ncnc32)[C@H](O)[C@@H]1O` (stereo partly shown) [SAM, S-adenosylmethionine]: the Vmax at PkPMT [3] amounted to 119.7 ± 15.41 nmolmin^−1 mg^−1Protein; at PvPMT [4] it was 12.62 ± 0.95 nmolmin^−1 mg^−1Protein.
For `NCCOP(=O)(O)O` [P-Etn, phosphoethanolamine], at PkPMT [3], the Kcat is 0.00433 ± 0.00033 s⁻¹; the Michaelis constant (Km) (as a rule, the substrate concentration at which the rate is half of its maximum) was found to be 100 ± 30 µM; the Vmax came out at 86.01 ± 8.35 nmolmin^−1 mg^−1Protein. For the same molecule, on PvPMT [4], the Kcat amounted to 0.00083 ± 0.00017 s⁻¹, the Km stood at 210 ± 70 µM and the Vmax is 18.67 ± 2.93 nmolmin^−1 mg^−1Protein.

B1: PkPMT (Plasmodium knowlesi strain H) (protein)
chain: MVSESVDIEYLENNQYSDEGIKAYEFIFGEDYISSGGIVATTKILSDIYLEPNSKVLDIGSGLGGGCKYINEKYDAHVYGVDICEKMIAIAKLRNKDKSKVEFEAMDILKKDFPECTFDMIYSRDAILHLPYADKKKLFEKCYKWLKPNGILLITDYCADKIENWDEEFKAYINKRKYTLIPIQDYGDLIKSCNFQNVQAKDISDYWLELLQMELNKLEEKKDEFLKLYPTDEYNSLKDGWTRKIKDTKRHLQKWGYFKAQKMV
In the case of B1, in data set [5], the Michaelis-Menten constant (Km) is 270 ± 90 µM; the turnover number (kcat) (usually the number of substrate molecules converted per active site and unit of time at saturation) is 0.00617 ± 0.0005 s⁻¹; the kcat/Km – broadly, the second-order rate constant that governs catalysis at low substrate concentration – is 22.8 M⁻¹ s⁻¹.

B2: PvPMT (Plasmodium vivax Sal-1) (protein)
chain: MISEPVDIKYLENNQYSDEGIKAYEFIFGEDYISSGGIIATTKILSDIQLDANSKVLDIGSGLGGGCKYINEKYGAHVHGVDICEKMVTIAKLRNQDKAKIEFEAKDILKKDFPESTFDMIYSRDSILHLSYADKKMLFEKCYKWLKPNGILLITDYCADKIENWDEEFKAYIKKRKYTLMPIQEYGDLIKSCKFQNVEAKDISDYWLELLQLELSKLEEKKEEFLKVYSIKEYNSLKDGWTRKIKDTKRDLQKWGYFKAQKMI
In the case of B2, in data set [6], the Michaelis-Menten constant (Km) was 230 ± 70 µM, the catalytic constant (kcat) came out at 0.000667 ± 0.000333 s⁻¹ and the catalytic efficiency (kcat/Km) was determined as 2.83 M⁻¹ s⁻¹.
